Assay results as given in article PMC5507300, “Antibacterial small molecules targeting the conserved TOPRIM domain of DNA gyrase” (PLoS ONE, 2017).

Legend:
P. aeruginosa DNA gyrase = biological target: T1, P. aeruginosa DNA gyrase (Pseudomonas aeruginosa, UniProt Q9I7C2); experiment: Agarose gel DNA gyrase supercoiling assay, P. aeruginosa; format: biochemical; conditions: gel-based assay, Fig 3B
T1 construct: purchased Inspiralis, Norwich, UK
Experimental: Conditions to measure the supercoiling of a relaxed, closed-circular plasmid substrate and cleavage complex stabilization in agarose gels were adapted from the literature and carried out as described below. Plasmid supercoiling reactions were assembled by combining 0.4 μL compound (in 100% DMSO), 12.5 μL H2O, 4 μL 5Xbuffer, 0.4 μL relaxed pUC19 DNA substrate (0.5 μg), […] dilute DNA gyrase (buffer, substrate, and enzyme from New England Biolabs, Beverly, MA). Alternatively the substrate pHOT-1 (TopoGEN, Buena Vista, CO) was used as noted (the substrate from New England Biolabs has been discontinued). P. aeruginosa DNA gyrase was supplied by Inspiralis, Norwich, UK. Reactions were allowed to proceed for 30 min. at 37°C after which 5 μL of stop buffer (5% sarkosyl, 25% glycerol, 1X Blue Juice [Invitrogen, Carlsbad, CA]) were added. Reactions were then extracted with 20 μL chloroform/isoamylOH (24:1) and a portion of the aqueous phase was loaded into a well in a 1% agarose/Tris-borate EDTA gel. Electrophoresis was conducted at 35 VDC until the loading dye migrated about 6.5 cm down the gel. DNA in the gel was then stained in 0.5 μg/mL ethidium bromide in water for 30 min. and rinsed (3X) in H2O. The gel was illuminated with UV light, photographed, and DNA quantitated with an Alpha Imager and accompanying software (ProteinSimple, San Jose, CA). […]

E. coli topoisomerase IV = biological target: T2, E. coli topoisomerase IV (Escherichia coli, UniProt P20083); experiment: E. coli topoisomerase IV decatenation reaction; format: biochemical; conditions: maximum achievable concentration (200 μM), kDNA decatenation
T2 construct: purchased TopoGEN, Inc
T2 sequence (P20083 whole entry): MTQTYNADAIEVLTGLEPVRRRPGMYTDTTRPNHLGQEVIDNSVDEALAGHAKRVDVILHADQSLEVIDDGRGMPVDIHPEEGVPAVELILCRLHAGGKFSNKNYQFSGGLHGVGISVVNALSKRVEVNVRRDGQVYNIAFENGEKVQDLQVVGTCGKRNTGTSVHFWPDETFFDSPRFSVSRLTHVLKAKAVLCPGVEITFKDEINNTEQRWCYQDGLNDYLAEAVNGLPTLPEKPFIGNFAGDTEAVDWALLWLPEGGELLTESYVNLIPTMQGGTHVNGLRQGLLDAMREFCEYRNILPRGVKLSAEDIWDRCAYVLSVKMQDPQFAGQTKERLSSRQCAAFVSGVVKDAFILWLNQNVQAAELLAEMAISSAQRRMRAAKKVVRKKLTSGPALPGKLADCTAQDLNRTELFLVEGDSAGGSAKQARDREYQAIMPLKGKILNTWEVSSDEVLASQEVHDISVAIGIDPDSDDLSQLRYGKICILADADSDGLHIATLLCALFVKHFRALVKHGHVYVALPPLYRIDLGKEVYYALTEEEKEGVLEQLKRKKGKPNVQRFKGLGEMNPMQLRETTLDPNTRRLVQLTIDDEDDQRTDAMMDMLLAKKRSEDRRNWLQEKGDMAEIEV
T2 sequence (P0AFI2 whole entry, further chain): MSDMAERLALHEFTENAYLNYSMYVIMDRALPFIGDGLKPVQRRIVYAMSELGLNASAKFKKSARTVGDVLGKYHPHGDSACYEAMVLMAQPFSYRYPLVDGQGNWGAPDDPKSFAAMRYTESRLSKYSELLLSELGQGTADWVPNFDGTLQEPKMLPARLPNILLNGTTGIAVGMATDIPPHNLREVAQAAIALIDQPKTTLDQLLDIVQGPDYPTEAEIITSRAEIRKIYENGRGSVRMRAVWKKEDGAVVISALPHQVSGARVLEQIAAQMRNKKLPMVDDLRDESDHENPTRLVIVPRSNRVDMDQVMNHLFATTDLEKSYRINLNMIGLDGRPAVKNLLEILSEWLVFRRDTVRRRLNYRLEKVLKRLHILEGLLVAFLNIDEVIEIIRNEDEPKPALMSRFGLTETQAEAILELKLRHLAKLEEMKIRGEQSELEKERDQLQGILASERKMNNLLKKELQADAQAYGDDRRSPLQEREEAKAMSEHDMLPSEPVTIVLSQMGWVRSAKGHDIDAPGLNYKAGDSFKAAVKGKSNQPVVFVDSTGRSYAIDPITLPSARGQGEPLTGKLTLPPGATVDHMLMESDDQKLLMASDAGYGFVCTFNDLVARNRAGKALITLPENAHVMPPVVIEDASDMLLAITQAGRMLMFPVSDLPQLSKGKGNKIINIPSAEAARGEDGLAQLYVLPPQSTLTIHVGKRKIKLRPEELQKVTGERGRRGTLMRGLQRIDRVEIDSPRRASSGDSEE

E. coli HS151 = experiment: In vitro time-dependent bactericidal study; format: cell-based
Experimental: A culture of E. coli HS151 in CAMH broth was grown overnight (18 hrs.) at 37°C, diluted 1:10,000 in 200 mL of fresh CAMH broth and further incubated for 1 hour at 37°C with shaking. A time-zero sample was then removed and 20 mL portions of the remaining culture were transferred into 125 mL vented flasks to which were added MRL-1082 or control antibiotics, at the indicated concentrations. These flasks were then incubated at 37°C with shaking (70 rpm). Samples were withdrawn at the indicated times, plated on blood agar (trypticase soy agar with 5% sheep blood, Becton-Dickinson) and, following overnight growth at 37°C, colonies were counted to determine CFU/mL.

[1] = biological target: T3, wild-type E. coli DNA gyrase (recombinant GyrA/GyrB) (Escherichia coli, UniProt P0AES6); experiment: Gel supercoiling assay, reconstituted wild-type gyrase; format: biochemical
T3 construct: made in house; host or cells: E. coli BL21(DE3) RIL
Experimental: (§1) Conditions to measure the supercoiling of a relaxed, closed-circular plasmid substrate and cleavage complex stabilization in agarose gels were adapted from the literature and carried out as described below. Plasmid supercoiling reactions were assembled by combining 0.4 μL compound (in 100% DMSO), 12.5 μL H2O, 4 μL 5Xbuffer, 0.4 μL relaxed pUC19 DNA substrate (0.5 μg), […] dilute DNA gyrase (buffer, substrate, and enzyme from New England Biolabs, Beverly, MA). Alternatively the substrate pHOT-1 (TopoGEN, Buena Vista, CO) was used as noted (the substrate from New England Biolabs has been discontinued). P. aeruginosa DNA gyrase was supplied by Inspiralis, Norwich, UK. […] The gel was illuminated with UV light, photographed, and DNA quantitated with an Alpha Imager and accompanying software (ProteinSimple, San Jose, CA). […]
(§2) The E. coli gyrA and gyrB (wild-type and t1537c (F513L)) genes with a N-terminal His6 tag sequence followed by Tobacco Etch Virus (TEV) cleavage site ([…]) were cloned into pET28(+) vector (EMD Millipore). […] Fractions containing gyrase subunit protein (as monitored by sodium dodecyl sulfate polyacrylamide gel electrophoresis (SDS-PAGE)) were pooled and loaded onto a Q-Sepharose column (GE Healthcare, Princeton, NJ, USA) equilibrated in 20 mM Tris-HCl (pH = 7.9), 25mM NaCl, 10% glycerol, and 2 mM β-mercaptoethanol. […]

[2] = biological target: T4, E. coli DNA gyrase GyrB (F513L) (Escherichia coli, UniProt P0AES6, F513L); experiment: Gel supercoiling assay, reconstituted GyrB (F513L) gyrase; format: biochemical
T4 construct: His6 tag followed by TEV site (X1: […]) (N, cleaved yes); made in house; host or cells: E. coli BL21(DE3) RIL
Experimental: as §1, §2

T1 sequence (Q9I7C2 whole entry): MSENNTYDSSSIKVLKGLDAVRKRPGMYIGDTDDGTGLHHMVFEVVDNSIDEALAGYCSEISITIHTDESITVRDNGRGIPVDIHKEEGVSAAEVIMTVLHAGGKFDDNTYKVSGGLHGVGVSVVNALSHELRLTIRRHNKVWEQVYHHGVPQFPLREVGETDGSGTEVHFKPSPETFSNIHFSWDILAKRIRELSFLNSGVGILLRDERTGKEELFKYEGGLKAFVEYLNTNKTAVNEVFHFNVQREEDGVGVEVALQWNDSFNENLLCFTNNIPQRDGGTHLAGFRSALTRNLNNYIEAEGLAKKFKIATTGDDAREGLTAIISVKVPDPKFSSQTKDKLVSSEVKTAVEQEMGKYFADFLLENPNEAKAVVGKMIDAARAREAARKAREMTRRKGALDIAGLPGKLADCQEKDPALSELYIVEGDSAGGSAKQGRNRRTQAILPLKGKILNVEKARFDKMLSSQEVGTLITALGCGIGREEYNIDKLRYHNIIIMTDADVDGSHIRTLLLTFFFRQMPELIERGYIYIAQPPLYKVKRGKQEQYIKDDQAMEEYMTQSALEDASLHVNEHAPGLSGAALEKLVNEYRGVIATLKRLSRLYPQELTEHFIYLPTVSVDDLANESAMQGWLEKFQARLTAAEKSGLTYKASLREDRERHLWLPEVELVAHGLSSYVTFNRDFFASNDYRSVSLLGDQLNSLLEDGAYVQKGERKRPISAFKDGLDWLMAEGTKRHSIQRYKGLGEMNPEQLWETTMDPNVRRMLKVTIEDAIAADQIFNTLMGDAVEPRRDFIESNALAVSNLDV
T1 sequence (P48372 whole entry, further chain): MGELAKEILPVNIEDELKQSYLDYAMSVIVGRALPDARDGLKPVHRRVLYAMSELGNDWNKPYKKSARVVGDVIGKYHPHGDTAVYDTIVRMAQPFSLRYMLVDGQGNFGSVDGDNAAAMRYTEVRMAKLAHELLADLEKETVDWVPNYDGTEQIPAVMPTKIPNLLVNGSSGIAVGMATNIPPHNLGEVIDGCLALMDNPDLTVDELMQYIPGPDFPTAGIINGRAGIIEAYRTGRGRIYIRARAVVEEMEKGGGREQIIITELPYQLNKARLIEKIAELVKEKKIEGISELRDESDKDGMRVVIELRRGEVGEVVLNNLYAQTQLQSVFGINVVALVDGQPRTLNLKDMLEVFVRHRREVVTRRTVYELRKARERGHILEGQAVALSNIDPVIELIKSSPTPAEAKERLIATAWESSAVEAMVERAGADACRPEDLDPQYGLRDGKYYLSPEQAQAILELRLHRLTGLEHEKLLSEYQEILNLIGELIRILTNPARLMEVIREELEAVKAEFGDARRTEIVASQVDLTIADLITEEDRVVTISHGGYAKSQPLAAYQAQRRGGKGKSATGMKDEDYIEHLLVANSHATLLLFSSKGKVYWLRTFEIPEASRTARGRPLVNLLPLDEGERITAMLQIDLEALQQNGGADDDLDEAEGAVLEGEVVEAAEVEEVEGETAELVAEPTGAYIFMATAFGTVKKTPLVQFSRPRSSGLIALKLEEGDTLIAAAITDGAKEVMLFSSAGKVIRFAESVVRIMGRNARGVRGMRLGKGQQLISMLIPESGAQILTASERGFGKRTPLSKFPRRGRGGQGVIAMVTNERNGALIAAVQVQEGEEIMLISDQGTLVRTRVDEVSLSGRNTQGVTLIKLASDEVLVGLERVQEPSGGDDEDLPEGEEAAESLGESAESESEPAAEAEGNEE

Cn1ncc2cc(-c3nnnn3C3CCN(C(=O)Nc4ccc(Cl)c(Cl)c4)CC3)ccc21 [MRL-1082]
activity against P. aeruginosa DNA gyrase (P. aeruginosa DNA gyrase): active | activity against E. coli topoisomerase IV (E. coli topoisomerase IV): does not inhibit | reduction in culture viability (E. coli HS151; E. coli HS151, 2XMIC or greater, following 2–4 hours of treatment): greater than 3 log | culture viability, below lower limit of quantitation (E. coli HS151; E. coli HS151, 4-8XMIC, after 8 hours): < 20 CFU/mL | MIC (E. coli HS151; Escherichia coli, HS151, 24 h, read-out: MIC of isolates from treated culture): 0.0625 µg/mL | IC50 [1]: ~3.5 µM | IC50 [2]: > 200 µM
